From patent publication US10288602B2, “Screening method, a kit, a method of treatment and a compound for use in a method of treatement” (ATROGI AB, priority 2013, dated 2019)

Key:
CHO GLUT4 cells = test: Glucose uptake (3H-2-deoxy-glucose) in CHO GLUT4 cells; type: cell-based, Chinese Hamster; settings: for mTORC2 activity represented by glucose uptake: CHO GLUT4 cells, reference: cells not contacted
Description: (§1) Glucose uptake was measured in CHO Glut 4 (Chinese Hamster Ovary cells transfected to overexpress GLUT4) and L6-myotubes grown in 12-well plates using ^3H-2-dexoy-glucose as previously described (Nevzorova et al. 2006, Dehvari et al. 2011, Nevzorova et al. 2002) with minor modifications. L6-cells were differentiated for 7-8 days before the experiment, serum-starved over night in media containing 0.5% fatty-acid free BSA and stimulated with test compounds for totally 2 h, unless otherwise stated. The test 3′ compounds used in the experiment were: N-[5-(4,5-dihydro-1H-imidazol-2yl)-2-hydroxy-5,6,7,8-tetrahydro naphthalen-1-yl] methanesulfonamide hydrobromide (A61603), noradrenaline (NA), insulin, oxymetazoline (oxy), and 5-(methylamino)-2-({(2R,3R,6S,8S,9R,11R)-3,9,11-trimethyl-8-[(S)-1-methyl-2-oxo-2-(l H-pyrrol-2-yl)ethyl]-1,7-dioxaspiro[5.5]undec-2-yl}methyl)-1,3-benzoxazole-4-carboxylic acid (also referred to as Calcimycin) (A23187).
(§2) Inhibitors were added 30 min before stimulation. 25 min before the end of the experiment, cells were washed twice in warm PBS and kept in glucose-free DMEM together with the different drugs for 10 min before 50 nM ^3H-2-deoxy-glucose was added for additional 6 minutes. The reaction was terminated by washing the cells in ice-cold PBS three times. Cells were lysed in 0.2 NaOH for 1 h in 60° C. and the radioactivity detected by liquid scintillation (scintillation buffer Emulsifier Safe, Perking Elmer and analysis is a Tri-Carb® 2800TR from Perkin Elmer).

Akt [1] = test: Western blot of Akt phosphorylation (T308, S473) in CHO GLUT4 cells; type: cell-based, Chinese Hamster; settings: for Akt p-S473 % basal: CHO GLUT4, 10 min, approximate values from FIG. 6B, insulin, NA, oxy 0.1 μM, A61603 0.01 μM; for Akt activity represented by phosphorylation of Akt: CHO GLUT4 cells, FIG. 6, 10 min, reference: cells not contacted
Description: (§3) L6 myotubes (FIG. 5) and CHO GLUT4 cells (FIG. 6) in 12-well plates were used for western blotting. Cells were serum-starved overnight before experiment. Immunoblotting was performed as previously described (Nevzorova et al. 2006, […] et al. 2011, Nevzorova et al. 2002). Primary antibodies (Akt, phospho-Akt T308, phospho-Akt S473, AS 160, GLUT4, phospho-mTOR […], phospho-mTOR […], raptor, and rictor diluted 1:1000) were all from Cell Signaling Technology, Inc and were detected using a secondary antibody (horseradish peroxidase-linked anti-rabbit IgG, from Cell Signaling Technology, Inc) diluted 1:2000 and measured using enhanced chemiluminescence (ECL, Amersham Biosciences).

Akt [2] = test: Western blot of Akt phosphorylation (T308, S473) in L6 myotubes; type: cell-based; settings: for Akt activity represented by phosphorylation of Akt: FIG. 5, 10 min, 30 min, 2 h, reference: cells not contacted
Description: as §3

GLUT4 = GLUT4 in plasma membrane (GLUT4 translocation) in L6 myotubes; type: cell-based; settings: for mTORC2 activity represented by GLUT translocation: FIG. 20, reference: cells not contacted
AS160 = test: Western blot of AS160 phosphorylation (T642) in L6 myotubes; type: cell-based; settings: FIG. 7; for Akt activity represented by phophorylation of Akt substrate: AS160 p-T642, L6 myotubes, reference: cells not contacted; for AS160 phosphorylation: L6 myotubes
Description: as §3

L6 myotubes = test: Glucose uptake (3H-2-deoxy-glucose) in L6 myoblasts and L6 myotubes; type: cell-based; settings: for glucose uptake in L6 myoblasts and L6 myotubes / mTORC2 activity represented by glucose uptake: FIG. 2; for mTORC2 activity represented by glucose uptake: L6 myoblasts and myotubes, reference: cells not contacted; for effect on GPCR and insulin-stimulated glucose uptake: indinavir 100M
Description: as §1, §2

mTORC2 = test: Western blot of mTOR phosphorylation (S2448, S2481) in L6 myotubes; type: cell-based; settings: for mTORC2 activity represented by phosphorylation of mTORC2: FIG. 13, reference: cells not brought into contact with the compound
Description: as §3

PIP3 = PIP3 immunofluorescence in permeabilised L6 cells; type: cell-based; settings: FIG. 3
Description: PIP3 was visualized in permeabilised L6 cells (0.5% Triton X-100 in water, 15 min) blocked with 10% rat serum in TBS overnight at 4° C. Mouse anti-PIP3 conjugated to a biotinylated goat anti-mouse IgM diluted 1:100) was incubated for 1 h at 37° C., cells washed three times (10% rat serum in TBS), secondary antibody added (streptavidin-Alexa Fluor® 488 1:2000 in TBS, 30 min, 37° C.). Slides were mounted with ProLong® Gold antifade reagent (Invitrogen).

[3] = test system: other members of the PI3K/PIKK family; settings: at up to 1 μM; Garcia-Martinez et al. 2009; cited from earlier work
skeletal muscle = test: [3H]-2DG glucose uptake in mouse skeletal muscle in vivo; settings: WT 129sv mice, 10 mg/kg, 10 min before insulin or isoproterenol 1 mg/kg; FIG. 12
Description: After 20 min [^3H]-2DG (130 μCi/kg) was injected. Muscles were sampled 1 h later and lysed in 0.5M NaOH.
Glucose uptake was measured by liquid scintillation counting.

rat soleus muscle = test: 3-O-methylglucose uptake in intact rat soleus muscle ex vivo; settings: 30 min preincubation, then insulin or isoproterenol 1 h; FIG. 11
Description: Soleus muscles were dissected from Sprague-Dawley rats and suspended in Krebs-Henseleit bicarbonate (KHB) buffer (118.5 mM NaCl, 4.7 mM KCl, 1.2 mM KH2PO4, 25 mM NaHCO3, 2.5 mM CaCl2, 1.2 mM MgSO, 5 mM HEPES) in organ baths containing 30 ml KHB containing 5 mM glucose and 15 mM mannitol, bubbled with 95% O2/5% CO2 (pH 7.4) and maintained at 37° C. […] Muscles were rinsed with KHB (20 mM mannitol) for 10 min, then incubated in KHB (8 mM 3-O-methylglucose and 12 mM mannitol with 438 μCi/mmol 3-O-methyl[^3H]glucose (80.2 Ci/mmol; PerkinElmer) and 42 μCi/mmol [^14C] mannitol (58.8 mCi/mmol; PerkinElmer, USA)) for 12 min. Muscles were then rinsed with PBS and frozen in liquid nitrogen, weighed and dissolved in 1 mL of 0.5M NaOH at 60′C. ^3H and ^14C were measured by liquid scintillation counting. Total muscle 3-O-methylglucose and extracellular space were measured as described previously (23). Intracellular 3-O-methylglucose accumulation was calculated by: (Total muscle 3-O-methylglucose)−(extracellular 3-O-methylglucose)=intracellular 3-O-methylglucose. This is then expressed as a rate of 3-O-methylglucose transport per mL of intracellular water per hour.

[4] = Glucose tolerance test in Goto-Kakizaki GK-rats; type: in vivo, rat; settings: in drinking water 4 days, 60, 90 and 120 minutes after glucose, vs untreated animals, FIG. 21
Description: Goto-Kakizaki GK-rats, showing impaired glucose tolerance form an established model of type 2 diabetes. GK-rats were split into two groups, one of which was treated with the GPCR agonist clenbuterol in the drinking water for 4 days prior to a glucose tolerance test.

[5] = L6 myotubes, FIG. 19, cytochalasin B 10 μM

## Cc1cc(C(C)(C)C)c(O)c(C)c1CC1=NCCN1 [oxymetazoline]
CHO GLUT4 cells; FIG. 1
  mTORC2 activity represented by glucose uptake: + (1)
Akt [1]
  Akt p-S473 % basal: 135 % basal
  Akt activity represented by phosphorylation of Akt: − (6)

## CC(C)NCC(O)c1ccc(O)c(O)c1 (centres unmarked) [isoproterenol]
Akt [2]; L6 myotubes
  Akt activity represented by phosphorylation of Akt: − (5)
CHO GLUT4 cells; FIG. 1
  mTORC2 activity represented by glucose uptake: + (1, 2)
GLUT4
  mTORC2 activity represented by GLUT translocation: + (20)
AS160
  Akt activity represented by phophorylation of Akt substrate: − (7)
  AS160 phosphorylation: not isoproterenol treatment
L6 myotubes
  glucose uptake in L6 myoblasts and L6 myotubes: increased
  mTORC2 activity represented by glucose uptake: + (1, 2)
mTORC2; FIG. 13
  phosphorylation of mTOR (sites S2448, S2481): phosphorylation only at S2481
mTORC2
  mTORC2 activity represented by phosphorylation of mTORC2: + (13)
PIP3
  PIP3 content: not isoproterenol increased PIP3 content

## COc1ccc(-c2ccc3c(N4CCOCC4)nc(N4C[C@@H](C)O[C@@H](C)C4)nc3n2)cc1CO [KU0063794]
[3]
  inhibition of other members of the PI3K/PIKK family: does not inhibit
Akt [2]; 100 nM, L6 myotubes, FIG. 9
  effect on insulin-stimulated Akt phosphorylation at S473: decreased
  effect on insulin-stimulated phosphorylation of Akt at T308: no effect
Skeletal muscle
  effect on insulin and GPCR stimulated glucose-uptake in skeletal muscle in-vivo: inhibits
CHO GLUT4 cells; CHO glut 4, FIG. 10B
  effect on GPCR stimulated glucose-uptake: inhibits
GLUT4; FIG. 20
  effect on insulin and GPCR stimulated GLUT4 translocation: significantly inhibits
Rat soleus muscle
  effect on insulin and GPCR stimulated glucose-uptake in intact soleus muscle ex-vivo: inhibits
L6 myotubes; L6 myotubes, FIG. 10A
  effect on GPCR stimulated glucose-uptake: inhibits
mTORC2; FIG. 13
  effect on insulin- and GPCR-stimulated mTOR phosphorylation at S2448 and S2481: abolished

## Br.CS(=O)(=O)Nc1c(O)ccc2c1CCCC2C1=NCCN1 (centres unmarked) [A61603, N-[5-(4,5-dihydro-1H-imidazol-2yl)-2-hydroxy-5,6,7,8-tetrahydronaphthalen-1-yl] methanesulfonamide hydrobromide]
CHO GLUT4 cells; FIG. 1
  mTORC2 activity represented by glucose uptake: + (1)
Akt [1]
  Akt p-S473 % basal: 135 % basal
  Akt activity represented by phosphorylation of Akt: − (6)

## insulin
Akt [2]; L6 myotubes
  Akt activity represented by phosphorylation of Akt: + (5, 6)
Akt [2]; all time points examined, FIG. 5, FIG. 6
  Akt phosphorylation at T308 and S473: increased
GLUT4
  mTORC2 activity represented by GLUT translocation: + (20)
Akt [1]
  Akt p-S473 % basal: 170 % basal
  Akt activity represented by phosphorylation of Akt: + (5, 6)
AS160
  Akt activity represented by phophorylation of Akt substrate: + (7)
  AS160 phosphorylation: phosphorylated
L6 myotubes
  glucose uptake in L6 myoblasts and L6 myotubes: increased
  mTORC2 activity represented by glucose uptake: + (2)
mTORC2; FIG. 13
  phosphorylation of mTOR (sites S2448, S2481): phosphorylation of mTOR at both S2448 and S2481
mTORC2
  mTORC2 activity represented by phosphorylation of mTORC2: + (13)
PIP3
  PIP3 content: increased

## CC(C)(C)NCC(O)c1cc(Cl)c(N)c(Cl)c1 (centres unmarked) [clenbuterol]
[4]
  blood glucose levels in glucose tolerance test: greatly improved

## C=C1[C@@H](C)[C@H]2[C@H](Cc3ccccc3)NC(=O)[C@]23OC(=O)/C=C/[C@H](O)CCC[C@@H](C)C/C=C/[C@H]3[C@@H]1O [cytochalasin B]
L6 myotubes; L6 myotubes, FIG. 19, cytochalasin B 10 μM, indinavir
  block of basal glucose uptake: ~40%
L6 myotubes; [5]
  effect on GPCR and insulin-stimulated glucose uptake: markedly reduced

## CO[C@H]1C[C@@H]2CC[C@@H](C)[C@@](O)(O2)C(=O)C(=O)N2CCCC[C@H]2C(=O)O[C@H]([C@H](C)C[C@@H]2CC[C@@H](O)[C@H](OC)C2)CC(=O)[C@H](C)/C=C(\C)[C@@H](O)[C@@H](OC)C(=O)[C@H](C)C[C@H](C)/C=C/C=C/C=C/1C [rapamycin]
L6 myotubes; short term treatment, L6 myotubes, FIG. 14
  effect on insulin mediated or isoproterenol mediated glucose uptake: no effect

## CC(C)(C)NC(=O)[C@@H]1CN(Cc2cccnc2)CCN1C[C@@H](O)C[C@@H](Cc1ccccc1)C(=O)N[C@H]1c2ccccc2C[C@H]1O [indinavir]
L6 myotubes; [5]
  effect on GPCR and insulin-stimulated glucose uptake: markedly reduced

## NC[C@H](O)c1ccc(O)c(O)c1 [noradrenaline]
CHO GLUT4 cells; FIG. 1
  mTORC2 activity represented by glucose uptake: + (1)
  glucose uptake in CHO glut 4: increases
Akt [1]
  Akt p-S473 % basal: 130 % basal
  Akt activity represented by phosphorylation of Akt: − (6)

## CCN(CC)CCCCN1c2ccccc2Oc2ccc(Cl)cc21 [Akt inhibitor X]
L6 myotubes; L6 myotubes, inhibitor 10 μM, FIG. 4
  effect on insulin-stimulated glucose uptake: inhibited
L6 myotubes; L6 myotubes, inhibitor 10 μM, isoproterenol, FIG. 4
  effect on GPCR-mediated glucose uptake: not GPCR-mediated glucose uptake

## O=C(Nc1cccc(Nc2ncc(Br)c(NCCc3cnc[nH]3)n2)c1)N1CCCC1 [BX-912]
Akt [2]; L6 myotubes, FIG. 8
  effect on insulin-mediated T308-Akt phosphorylation: significantly inhibited
Akt [2]; L6 myotubes, insulin, FIG. 8
  effect on S473-Akt phosphorylation: no effect
